Source: patent US20250304587A1, “WEE1 INHIBITOR, PREPARATION THEREFOR AND USE THEREOF” (JIANGSU TASLY DIYI PHARMACEUTICAL CO., LTD., priority 2022, published 2025)
pIC50: −log10 of the molar value.

Experiments:
[1] = biological target: CYP2C19 (Homo sapiens (Human), UniProt P33261); experiment: Cytochrome P450 inhibition (fluorescence), CYP2C19; type: in vitro ADME; settings: read-out: IC50 CYP2C19
Procedure: (§1) Enzymatic experiments were performed to quantify the inhibition of CYP450 enzyme activity of each isoform of CYP450 by small molecule inhibitors through fluorescence generated by the oxidation of the substrate by cytochrome P450. […] The Solution B composition used for the experiment was: 40 U/mL G6PDH (Sigma-aldrich, Cat #G6378). The substrate mix was 0.05× Solution A, 0.01× Solution B, 50 mM Potassium Phosphate, 0.01 mM BOMCC/0.01 mM EOMCC/0.001 mM DBOMF. […] The data were analyzed and processed using GraphPad Prism 6 software to obtain IC50 values.

[2] = Plasma protein binding (equilibrium dialysis), human; type: in vitro ADME; settings: 5 h dialysis, read-out: Plasma Protein binding (PPB) Human (converted)
[3] = biological target: CYP2C8 (Homo sapiens (Human), UniProt P10632); experiment: Cytochrome P450 inhibition (fluorescence), CYP2C8; type: in vitro ADME; settings: read-out: IC50 CYP2C8
CYP2C8, sequence (P10632 whole entry): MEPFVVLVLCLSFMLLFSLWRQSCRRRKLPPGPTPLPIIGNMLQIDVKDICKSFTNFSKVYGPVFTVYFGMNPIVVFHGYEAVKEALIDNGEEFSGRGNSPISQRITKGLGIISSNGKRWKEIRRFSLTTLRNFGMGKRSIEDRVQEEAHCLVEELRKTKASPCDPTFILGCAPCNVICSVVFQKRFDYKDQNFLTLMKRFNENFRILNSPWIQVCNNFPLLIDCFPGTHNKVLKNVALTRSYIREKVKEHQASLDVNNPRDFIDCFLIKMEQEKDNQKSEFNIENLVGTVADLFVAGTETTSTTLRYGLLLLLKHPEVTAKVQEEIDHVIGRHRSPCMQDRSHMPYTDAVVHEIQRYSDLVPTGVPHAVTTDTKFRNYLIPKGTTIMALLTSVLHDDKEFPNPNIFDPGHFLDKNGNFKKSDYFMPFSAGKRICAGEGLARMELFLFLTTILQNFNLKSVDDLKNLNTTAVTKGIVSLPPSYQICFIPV
Procedure: as §1

[4] = Pharmacokinetics on single dose in rats (iv and po); type: in vivo, male SD rats
Procedure: Pharmacokinetic properties of the drug in male SD rats were evaluated by the same method with in vivo pharmacokinetic study with mice.

[5] = Metabolic stability in liver microsomes, human; type: in vitro ADME
Procedure: Test Example 3: Evaluation of the Metabolic Stability of Liver Microsomes (Mouse and Human) In Vitro Microsomes were taken out from the −80° C. refrigerator, rapidly melted in a 37° C. water bath and placed on ice until ready to use. The test article was diluted with DMSO to prepare a 10 mM stock solution, and then diluted with acetonitrile to a 0.5 mM secondary stock solution. […] NADPH was diluted with Buffer C to a working solution of 6 mM for the starter solution. An acetonitrile solution containing an internal standard was prepared as the precipitant, and Verapamil-HCl was chosen as the internal standard at a concentration of 4 ng/ml. […] A separate plate with pointed bottom wells, noted as a precipitation plate, was added with 135 μL precipitant per well; 0 h samples were transferred to the plate after 10 min incubation and 15 μL of starter solution was added; the plate was placed on ice before centrifugation. The diluted starter solution was added in sufficient quantity to the dispensing plate to facilitate the multichannel pipette aspiration operation. The reaction was carried out on a warm incubation shaker and 15 μL of starter solution/sample is added to the plate using a multichannel pipette. The reaction was mixed with a slight shake to initiate the reaction, which was accurately timed and recorded using a timer; After the reaction time had elapsed, all the solution in the plate was aspirated using the multichannel pipette and added to the precipitation plate to terminate the reaction at that point in time. After all reactions had been terminated, the plates were shaken for ten minutes on a plate shaker at 600 rpm to precipitate the protein. The plate was centrifuged at 4° C. for 15 minutes at maximum rpm. 80 μL of supernatant was taken, 320 μL of pure water was added and mixed for LC-MS analysis.

[6] = Pharmacokinetics on single dose in mice (iv and po); type: in vivo, male ICR mice
Source text: The present experiment aimed to study the pharmacokinetics in the plasma of male ICR mice after the administration. The present experiment aimed to obtain the pharmacokinetic profile of the subject compounds in ICR mice (both intravenous and oral) [table] • Species: SPF grade male ICR mice • Body weight/weekly age: about 30 g • Amount: 6 • Experimental animal source: Charles River • Intravenous solvents: 5% DMSO—10% Solutol-85% HPBCD (20%, WN) • “Gavage solvent/dosage form: 5% DMSO—10% Solutol-85% HPBCD (20%, WN)” • Intravenous: 1 mg/kg in a volume of 5 mL/kg • Gavage: 10 mg/kg in a volume of 10 mL/kg • Ultrasound for 5 min before administration • Intravenous: 0.2 mg/mL • Gavage: 1 mg/mL • Fast overnight before administration and feed four hours after administration. […] The blood samples were stored in a refrigerator at or below −20 C for LC-MS/MS analysis. The samples were detected for drug concentration at each time point by LC-MS/MS. Pharmacokinetic parameters terminal elimination half-life (t½), area under the curve (AUC), apparent volume of distribution (Vd), clearance (CL), mean residence time (MRT), and Cmax were calculated using the non-compailinental model of Phoenix WinNonlin 5.2. Bioavailability (F %) was directly from serum concentration results. Mean standard deviation (X±SD) was used for blood concentration and pharmacokinetic parameters, etc. Specific testing and analytical methods were specified in the form of protocol revisions.

[7] = Toxicity in rats after 14 consecutive days of administration, survival; settings: 14 days continuous administration, compared with controls
[8] = tested on: plasma protein; experiment: Plasma protein binding (equilibrium dialysis), human; type: in vitro ADME; settings: 1 μM, 5 h dialysis
[9] = male, rat, plasma, SD rats, iv 1 mg/kg
[10] = male, rat, plasma, SD rats, po 10 mg/kg
[11] = male, mouse, plasma, ICR mice, iv 1 mg/kg
[12] = male, mouse, plasma, ICR mice, po 10 mg/kg

CYP2C19, sequence (P33261 whole entry, canonical isoform): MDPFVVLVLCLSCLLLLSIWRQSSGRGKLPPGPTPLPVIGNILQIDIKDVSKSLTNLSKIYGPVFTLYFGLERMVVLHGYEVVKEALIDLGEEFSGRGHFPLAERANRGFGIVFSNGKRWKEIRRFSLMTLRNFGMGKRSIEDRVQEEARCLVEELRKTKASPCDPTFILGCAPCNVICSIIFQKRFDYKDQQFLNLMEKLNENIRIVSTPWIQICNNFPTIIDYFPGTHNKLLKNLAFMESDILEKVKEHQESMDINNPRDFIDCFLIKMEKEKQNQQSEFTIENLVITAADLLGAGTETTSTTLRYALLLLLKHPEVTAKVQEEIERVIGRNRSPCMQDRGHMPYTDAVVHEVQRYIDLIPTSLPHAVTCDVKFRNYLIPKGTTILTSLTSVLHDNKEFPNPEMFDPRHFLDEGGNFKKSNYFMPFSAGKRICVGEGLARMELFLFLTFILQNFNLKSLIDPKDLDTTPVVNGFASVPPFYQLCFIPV

C=CCn1c(=O)c2cnc(Nc3ccc(N4CCN(C)CC4)cc3)nc2n1-c1cccc(C(C)(C)O)n1 [AZD1775, reference compound]
pIC50 [1]: 5.00 to 6.00 | fraction unbound at 5 h, 1 µM [2]: 0.336 | pIC50 [3]: < 5.00 | Cl ([4]; SD rats, po 10 mg/kg): 170.8 mL/min/kg | F ([4]; SD rats, po 10 mg/kg): 121.8% | AUC(0-t) [4, 9]: 72.3 ng·h/mL | clearance [4, 9]: 148 mL/min/kg | half-life [4, 9]: 54.6 min | C0 ([4]; male, rat, plasma, SD rats, iv 1 mg/kg, read-out: C0): 101 ng/mL | AUC(0-t) [4, 10]: 881 ng·h/mL | half-life [4, 10]: 161 min | Cmax ([4]; male, rat, plasma, SD rats, po 10 mg/kg, read-out: Cmax): 188 ng/mL | half-life at 1 µM ([5]; read-out: T1/2 liver microsomes Human): 38.1 min | Cl ([6]; ICR mice, po 10 mg/kg): 446 mL/min/kg | F ([6]; ICR mice, po 10 mg/kg): 32% | AUC(0-t) [6, 11]: 116 ng·h/mL | clearance [6, 11]: 134 mL/min/kg | half-life [6, 11]: 30 min | C0 ([6]; male, mouse, plasma, ICR mice, iv 1 mg/kg, read-out: C0): 250 ng/mL | AUC(0-t) [6, 12]: 396 ng·h/mL | half-life [6, 12]: 52.2 min | Cmax ([6]; male, mouse, plasma, ICR mice, po 10 mg/kg, read-out: Cmax): 398 ng/mL | Tmax ([6]; male, mouse, plasma, ICR mice, po 10 mg/kg, read-out: Tmax): 25.2 min

[2H][C@]1(O)c2nc(-n3c4nc(Nc5ccc(N6CCC7(CCN(C)CC7)CC6)cc5)ncc4c(=O)n3CC=C)ccc2CCC12CC2 [Compound 37b]
Survival rate of rats (in words) [7]: significantly better than that in the control compound AZD1775 group and the control compound ZnC3 group | Plasma Protein binding (PPB) Human [8]: 77.58% | AUClast ([4]; SD rats, iv 1 mg/kg): 471 ng·h/mL | C0 ([4]; SD rats, iv 1 mg/kg): 313.2 ng/mL | T1/2 ([4]; SD rats, iv 1 mg/kg): 238 min | AUClast ([4]; SD rats, po 10 mg/kg): 1131 ng·h/mL | Cmax ([4]; SD rats, po 10 mg/kg): 188.6 ng/mL | F ([4]; SD rats, po 10 mg/kg): 24.01% | Tmax ([4]; SD rats, po 10 mg/kg): 160 min | Drug exposure (in words) ([4]; rats, compared with AZD1775): obvious advantages in drug exposure | T1/2 liver microsomes Human [5]: >120 min | AUClast ([6]; ICR mice, iv 1 mg/kg): 558 ng·h/mL | C0 ([6]; ICR mice, iv 1 mg/kg): 186 ng/mL | Cl ([6]; ICR mice, iv 1 mg/kg): 26.3 mL/min/kg | T1/2 ([6]; ICR mice, iv 1 mg/kg): 179 min | AUClast ([6]; ICR mice, po 10 mg/kg): 1607 ng·h/mL | Cl ([6]; ICR mice, po 10 mg/kg): 74 mL/min/kg | Cmax ([6]; ICR mice, po 10 mg/kg): 307 ng/mL | F ([6]; ICR mice, po 10 mg/kg): 29% | Tmax ([6]; ICR mice, po 10 mg/kg): 160 min | Pharmacokinetic properties (in words) ([6]; mice, compared with AZD1775): better pharmacokinetic properties than the control compound AZD1775
